Test results taken from patent US10947389B2, “Composition, film, near infrared cut filter, laminate, pattern forming method, solid image pickup element, image display device, infrared sensor, and color filter” (FUJIFILM Corporation, priority 2016, dated 2021).

Assays:
[1] = Evaluation of absorption maximum and absorbance ratio (500 nm/λmax) in solution; type: physicochemical; details: for λmax (nm) of Second Near Infrared Absorbing Compound: as listed in Table 58; for Absorbance Ratio (500 nm/λmax) / Absorption Maximum (nm): solvent chloroform
Excerpt: In this specification, “having an absorption maximum in a wavelength range of 650 to 1000 nm” denotes having a maximum absorbance in a wavelength range of 650 to 1000 nm in an absorption spectrum of the near infrared absorbing compound in a solution. Examples of a measurement solvent used for the measurement of the absorption spectra of the near infrared absorbing compound in the solution include chloroform, methanol, dimethyl sulfoxide, ethyl acetate, and tetrahydrofuran. In the case of a compound which is soluble in chloroform, chloroform is used as the measurement solvent. In the case of a compound which is not soluble in chloroform, methanol is used. In addition, In the case of a compound which is not soluble in chloroform and methanol, dimethyl sulfoxide is used.
Each of the compounds was dissolved in a measurement solvent shown in the following tables (concentration: 2.5×10^−6 mol/L) to measure an absorption spectrum (optical path length: 10 mm).
In addition, an absorbance ratio (500 nm/λmax) as a value obtained by dividing an absorbance at a wavelength of 500 nm by an absorbance at an absorption maximum was evaluated based on the following criteria.
A: the absorbance ratio (500 nm/λmax) was 0.04 or lower
B: the absorbance ratio (500 nm/λmax) was higher 0.04 and 0.08 or lower
C: the absorbance ratio (500 nm/λmax) was higher than 0.08

[2] = Evaluation of solubility in water at 23° C.; type: physicochemical; details: stirred for 1 hour
Method: Each of the compounds was added to water at 23° C. under the atmospheric pressure, the components were stirred for 1 hour, and the solubility of the compound in water was obtained. The solubility of the compound was evaluated based on the following criteria.
A: the solubility in water at 23° C. was 0.1 mass % or lower
B: the solubility in water at 23° C. was higher than 0.1 mass % and 1 mass % or lower
C: the solubility in water at 23° C. was higher than 1 mass %

Row | SMILES | λmax (nm) of Second Near Infrared Absorbing Compound [1] [nm] | Absorbance Ratio (500 nm/λmax) [1] | Absorption Maximum (nm) [1] [nm] | Solubility [2]
1 | CC(CCC(COc1cccc(-c2c3/c(=C(\C#N)c4nc5ccccc5s4)n(B4Oc5ccccc5O4)c(-c4cccc(OCC(CCC(C)CC(C)(C)C)C(C)CC(C)(C)C)c4)c3/c(=C(\C#N)c3nc4ccccc4s3)n2B2Oc3ccccc3O2)c1)C(C)CC(C)(C)C)CC(C)(C)C (centres unmarked) [II-590] | 719 | A (the absorbance ratio (500 nm/λmax) was 0.04 or lower) | 719 | A (the solubility in water at 23 °C was 0.1 mass % or lower)
2 | CC(CCC(COc1cccc(-c2[nH]/c(=C(/C#N)c3cnc4ccccc4n3)c3c(-c4cccc(OCC(CCC(C)CC(C)(C)C)C(C)CC(C)(C)C)c4)[nH]/c(=C(/C#N)c4cnc5ccccc5n4)c23)c1)C(C)CC(C)(C)C)CC(C)(C)C (centres unmarked) [PP-1] | – | B (the absorbance ratio (500 nm/λmax) was higher 0.04 and 0.08 or lower) | 739 | A (the solubility in water at 23 °C was 0.1 mass % or lower)
3 | CC(C)CCCCCCCC(CCCCCC(C)C)COc1cccc(-c2c3c(=C(C#N)c4nc5ccccc5o4)n(B4Oc5ccccc5O4)c(-c4cccc(OCC(CCCCCCCC(C)C)CCCCCC(C)C)c4)c3c(=C(C#N)c3nc4ccccc4o3)n2B2Oc3ccccc3O2)c1 (centres unmarked) [II-91] | 679 | A (the absorbance ratio (500 nm/λmax) was 0.04 or lower) | 679 | A (the solubility in water at 23 °C was 0.1 mass % or lower)
4 | CC(CCC(COc1ccc(-c2c3/c(=C(\C#N)c4cnc5cc(Cl)c(Cl)cc5n4)n(B(c4ccccc4)c4ccccc4)c(-c4ccc(O)cc4)c3/c(=C(\C#N)c3cnc4cc(Cl)c(Cl)cc4n3)n2B(c2ccccc2)c2ccccc2)cc1)C(C)CC(C)(C)C)CC(C)(C)C (centres unmarked) [Compound V-42] | – | A (the absorbance ratio (500 nm/λmax) was 0.04 or lower) | 885 | A (the solubility in water at 23 °C was 0.1 mass % or lower)
5 | CC(C)CCCCCCCC(CCCCCC(C)C)COc1ccc(-c2c3c(=C(C#N)c4cnc5cc(Cl)c(Cl)cc5n4)n(B(c4ccccc4)c4ccccc4)c(-c4ccc(OCC(CCCCCCCC(C)C)CCCCCC(C)C)cc4)c3c(=C(C#N)c3cnc4cc(Cl)c(Cl)cc4n3)n2B(c2ccccc2)c2ccccc2)cc1 (centres unmarked) [III-167] | – | A (the absorbance ratio (500 nm/λmax) was 0.04 or lower) | 885 | A (the solubility in water at 23 °C was 0.1 mass % or lower)
6 | Cc1cc2ncc(/C(C#N)=c3/c4c(-c5cccc(OCC(CCC(C)CC(C)(C)C)C(C)CC(C)(C)C)c5)n(B(c5ccccc5)c5ccccc5)/c(=C(/C#N)c5cnc6cc(C)c(C)cc6n5)c4c(-c4cccc(OCC(CCC(C)CC(C)(C)C)C(C)CC(C)(C)C)c4)n3B(c3ccccc3)c3ccccc3)nc2cc1C (centres unmarked) [III-328] | – | A (the absorbance ratio (500 nm/λmax) was 0.04 or lower) | 872 | A (the solubility in water at 23 °C was 0.1 mass % or lower)
7 | CC(CCC(COc1ccc(-c2c3c(=C(C#N)c4nc5ccccc5o4)n(B(c4ccccc4)c4ccccc4)c(-c4ccc(OCC(CCC(C)CC(C)(C)C)C(C)CC(C)(C)C)cc4)c3c(=C(C#N)c3nc4ccccc4o3)n2B(c2ccccc2)c2ccccc2)cc1)C(C)CC(C)(C)C)CC(C)(C)C (centres unmarked) [II-10] | – | A (the absorbance ratio (500 nm/λmax) was 0.04 or lower) | 740 | A (the solubility in water at 23 °C was 0.1 mass % or lower)
